The text below walks through data of patent US20260092061A1, “COMPOUNDS FOR TARGETED PROTEIN DEGRADATION” (Amphista Therapeutics Limited, priority 2022, published 2026).

What all share (format): cell-based
In test [1] the target is T1, BRD9 (Homo sapiens, UniProt Q9H8M2).
T1 sequence (Q9H8M2 1-597): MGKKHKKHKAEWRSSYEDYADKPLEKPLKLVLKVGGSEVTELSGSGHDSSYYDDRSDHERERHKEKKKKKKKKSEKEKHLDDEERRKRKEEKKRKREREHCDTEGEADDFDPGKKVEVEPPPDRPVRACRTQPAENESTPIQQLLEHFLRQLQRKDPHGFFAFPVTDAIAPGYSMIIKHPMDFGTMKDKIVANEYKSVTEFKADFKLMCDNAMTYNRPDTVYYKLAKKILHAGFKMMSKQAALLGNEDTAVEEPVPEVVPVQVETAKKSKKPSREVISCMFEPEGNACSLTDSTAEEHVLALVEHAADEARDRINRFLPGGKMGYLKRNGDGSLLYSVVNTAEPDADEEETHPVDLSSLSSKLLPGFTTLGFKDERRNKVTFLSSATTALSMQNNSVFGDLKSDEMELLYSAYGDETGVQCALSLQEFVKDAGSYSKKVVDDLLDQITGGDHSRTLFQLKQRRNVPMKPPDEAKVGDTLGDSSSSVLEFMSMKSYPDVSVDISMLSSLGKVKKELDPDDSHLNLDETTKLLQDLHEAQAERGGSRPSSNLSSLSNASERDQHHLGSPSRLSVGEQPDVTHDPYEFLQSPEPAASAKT
Nature of the test: BRD9 degradation, HiBiT-BRD9 KI HEK293 (LgBiT) cells, NanoGlo Lytic Endpoint assay (Assay Protocol 1). Conditions: Table 3; assay 1; 5 h of treatment. For orientation: With HiBiT, luminescence reflects the tagged protein that the partner subunit can reach.

The target in a further test is T2, BRD4 (Homo sapiens, UniProt O60885).
T2 construct: HiBiT-BRD4 HEK293 CRISPR CPM (Promega CS302312); host or cells: HEK293, CRISPR-edited (HiBiT at the BRD4 locus)
Description: BRD4 degradation, HiBiT-BRD4 HEK293 CRISPR CPM cells, NanoGlo Lytic Endpoint assay (Assay Protocol 1). Conditions: HEK293; Table 3; assay 1; 1 μM compound at 5 h of treatment.

The target in test [2] is T1, BRD9. Description: BRD9 degradation, HiBiT-BRD9 KI HEK293 (LgBiT) cells, NanoGlo Lytic Endpoint assay (Assay Protocol 1). Particulars: for Dmax at 1 µM / Dmax: HEK293. In outline:
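HiBiT-tagged BRD9 knock-in HEK293 (LgBiT) cells exposed to compounds for 6 h at 37 °C, 5% CO2. Residual BRD9 measured by HiBiT lytic luminescence. % BRD9 remaining normalised to DMSO-treated cells (high) and no-cell wells (low).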

Another test concerns the target T3, BRD7 (Homo sapiens, UniProt Q9NPI1).
T3 construct: HiBiT-BRD7 KI HEK293 (LgBiT) Cells (Promega CS3023410); host or cells: HEK293 (LgBiT), HiBiT knock-in at the BRD7 locus
T3 sequence (Q9NPI1 1-651): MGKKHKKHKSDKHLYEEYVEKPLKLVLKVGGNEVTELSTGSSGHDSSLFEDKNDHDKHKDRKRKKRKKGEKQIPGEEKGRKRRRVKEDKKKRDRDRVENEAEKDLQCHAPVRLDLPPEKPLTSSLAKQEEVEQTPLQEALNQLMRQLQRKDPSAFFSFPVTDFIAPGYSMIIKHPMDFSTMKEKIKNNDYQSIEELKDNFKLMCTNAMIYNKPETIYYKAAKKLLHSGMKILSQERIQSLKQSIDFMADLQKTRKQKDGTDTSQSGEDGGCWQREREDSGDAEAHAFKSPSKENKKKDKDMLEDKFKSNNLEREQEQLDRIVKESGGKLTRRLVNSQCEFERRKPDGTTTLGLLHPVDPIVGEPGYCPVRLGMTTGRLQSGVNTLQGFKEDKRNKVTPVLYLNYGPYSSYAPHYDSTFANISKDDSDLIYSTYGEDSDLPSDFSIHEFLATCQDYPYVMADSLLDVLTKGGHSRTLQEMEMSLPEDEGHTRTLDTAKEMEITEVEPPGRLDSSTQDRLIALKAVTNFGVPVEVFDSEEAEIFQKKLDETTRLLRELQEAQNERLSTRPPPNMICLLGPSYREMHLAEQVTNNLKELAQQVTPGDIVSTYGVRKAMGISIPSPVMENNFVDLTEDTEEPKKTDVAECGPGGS
Description: BRD7 degradation, HiBiT-BRD7 KI HEK293 (LgBiT) cells, NanoGlo Lytic Endpoint assay (Assay Protocol 1). Particulars: HEK293; Table 3; assay 1; 1 μM compound at 5 h of treatment. As to the method:
HiBiT-BRD9 KI HEK293 (LgBiT) Cells (Promega CS3023412) were seeded at 8000 cells per well (38 μL) in sterile white bottom 384 well plates (Invitrogen 164610 or Greiner 781080) and incubated overnight at 37° C. with 5% CO2. The next day, compounds were prepared at 1000× final concentration in DMSO and diluted 1:100 in media (DMEM PAN Biotech P04-03550+10% FBS ATCC 302025). […] The lytic buffer was equilibrated to room temperature for 10-15 min before lytic reagent was prepared by adding substrate (1:50) and LgBit protein (1:100) in lytic buffer. 40 μL lytic reagent mix was added to each well of the cel plate and plates were centrifuged briefly at ˜50g. Plates were incubated with shaking (350 RPM) for 12-24 min before reading using the LUM plus module of a BMG Pherastar FSX. Data was analysed using Dotmatics software and % BRD9 remaining was calculated by normalisation to average data from high and low control wells (DMSO treated cels and no cells respectively).
BRD7 degradation was determined in line with the procedure as outlined above for BRD9, with the exception that HiBiT-BRD7 KI HEK293 (LgBiT) Cells (Promega CS3023410) were seeded at 8000 cells per well (CPW) (36 uL) in sterile white bottom 384 well plates (Invitrogen 164610 or Greiner 781080) and incubated overnight at 37° C. with 5% CO2.

Test [3] deals with T1, BRD9. Nature of the test: Degradation of BRD9 (IF), immunofluorescence in MV4-11 cells, 24 hours (Assay Protocol 2). The arrangement: A suspension of MV4-11 cells (ATCC CRL-9591) was prepared; host or cells: MV4-11. In outline: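 % BRD9 remaining, scaled between DMSO (high) and 100 nM CFT-8634 (low) control wells, derives from mean Alexa 647 contrast in central nuclei by high-content imaging. MV4-11 cells had 24 h compound exposure at 37° C. before PFA fixation, Triton permeabilisation and anti-BRD9 E4Q3F immunostaining.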

Where [4] appears, read: Table 2, BRD9 degradation, Assay Protocol 1, 1 μM compound at 6 h of treatment, read-out: Assay 1 Dmax.
[5] abbreviates: Table 2, BRD9 degradation, Assay Protocol 1, 6 h of treatment, read-out: Assay 1 DC50.
Where [6] appears, read: MV4-11, Assay protocol 2, BRD9 degradation, read-out: Dmax.
The mark [7] stands for this setting: Assay protocol 1, BRD9 degradation, read-out: DC50.
The mark [8] stands for this setting: Assay protocol 1, BRD9 degradation, read-out: Dmax.
Setting [9] is: Assay protocol 2, BRD9 degradation, read-out: DC50.

Molecules are shown by their SMILES. Like-named read-outs stand apart in the source and are kept apart here.

Usually DC50 stands for the midpoint of the concentration-degradation curve.

On to `COc1cc(-c2cn(C)c(=O)c(C)c2C)cc(OC)c1CN1CCN(Cc2cccc3c2CCN(C(=O)/C(C#N)=C/c2ncc(C)s2)C3C)CC1` (mixture of isomers) [Compound A29], for which the DC50 on BRD9 [1] and at BRD9 [2] (setting [5]) was 1.25 to 10 nM throughout. Further, at BRD4, the Dmax was less than 25%. Besides, the Dmax at 1 µM was 40 to 70% on BRD9 [2] (setting [4]); 40 to 70% on BRD9 [2] (Table 3, assay 1, 1 μM compound at 5 h of treatment, read-out: BRD9 Dmax (%)); 25 to 40% at BRD7.
For the compound `COc1cc(-c2cn(C)c(=O)c(C)c2C)cc(OC)c1CN1CCN(Cc2cccc3c2CCN(C(=O)/C(C#N)=C/c2ncc(C(F)(F)F)s2)C3C)CC1` (mixture of isomers) [Compound B10, (E/Z)-2-(5-((4-(2,6-dimethoxy-4-(1,4,5-trimethyl-6-oxo-1,6-dihydropyridin-3-yl)benzyl)piperazin-1-yl)methyl)-1-methyl-1,2,3,4-tetrahydroisoquinoline-2-carbonyl)-3-(5-(trifluoromethyl)thiazol-2-yl)acrylonitrile], the results for the Dmax on BRD9 [3] (setting [6]) and on BRD9 [2] (setting [8]) were 40 to 70% and 70 to 75%, respectively. Besides, the DC50 at BRD9 [2] (setting [7]) is 1.25 to 10 nM.
Turning to `COc1cccnc1/C=C(\C#N)C(=O)N1CCc2c(CN3CCN(Cc4c(OC)cc(-c5cn(C)c(=O)c(C)c5C)cc4OC)CC3)cccc2C1C` (mixture of isomers) [Compound B51, (E/Z)-2-(5-((4-(2,6-dimethoxy-4-(1,4,5-trimethyl-6-oxo-1,6-dihydropyridin-3-yl)benzyl)piperazin-1-yl)methyl)-1-methyl-1,2,3,4-tetrahydroisoquinoline-2-carbonyl)-3-(3-methoxypyridin-2-yl)acrylonitrile], the results for the Dmax at BRD9 [3] (setting [6]) and on BRD9 [2] (setting [8]) were 25 to 40% and 40 to 70%, respectively. Also, the DC50 at BRD9 [2] (setting [7]) was 1.25 to 10 nM.
For the compound `COc1ccc(/C=C(\C#N)C(=O)N2CCc3c(CN4CCN(Cc5c(OC)cc(-c6cn(C)c(=O)c(C)c6C)cc5OC)CC4)cccc3C2C)nc1` (mixture of isomers) [Compound B53, (E/Z)-2-(5-((4-(2,6-dimethoxy-4-(1,4,5-trimethyl-6-oxo-1,6-dihydropyridin-3-yl)benzyl)piperazin-1-yl)methyl)-1-methyl-1,2,3,4-tetrahydroisoquinoline-2-carbonyl)-3-(5-methoxypyridin-2-yl)acrylonitrile], the Dmax on BRD9 [3] (setting [6]) and on BRD9 [2] (setting [8]) was 40 to 70% each time. For the same compound, the DC50 on BRD9 [2] (setting [7]) is 1.25 to 10 nM.
`COc1cc(-c2cn(C)c(=O)c3cc(C(=O)NCCCCCOc4cccc(C5CCCN5C(=O)/C(C#N)=C/c5nccs5)c4)sc23)cc(OC)c1CN(C)C` (mixture of isomers) [Compound A76, (E/Z)—N-(5-(3-(1-(2-cyano-3-(thiazol-2-yl)acryloyl)pyrrolidin-2-yl)phenoxy)pentyl)-7-(4-((dimethylamino)methyl)-3,5-dimethoxyphenyl)-5-methyl-4-oxo-4,5-dihydrothieno[3,2-c]pyridine-2-carboxamide]: the Dmax on BRD9 [3] (MV4-11, 24 h, Table 2, BRD9 degradation (IF), Assay Protocol 2, MV4-11 cells, read-out: Assay 2 DCmax) is 70 to 75%. In addition, the DC50 on BRD9 [3] (Table 2, BRD9 degradation (IF), Assay Protocol 2, MV4-11 cells, read-out: Assay 2 DC50) was less than 1.25 nM; on BRD9 [2] (setting [5]) it was 25 to 300 nM. Also, the Dmax at 1 µM on BRD9 [2] (setting [4]) lay within 40 to 70%.
`COc1cc(-c2cn(C)c(=O)c(C)c2C)cc(OC)c1CN1CC2CCC(C1)N2Cc1cccc2c1CCN(C(=O)/C(C#N)=C/C(C)(C)C)C2C` (mixture of isomers) [Compound B3, (E/Z)-2-(5-((3-(2,6-dimethoxy-4-(1,4,5-trimethyl-6-oxo-1,6-dihydropyridin-3-yl)benzyl)-3,8-diazabicyclo[3.2.1]octan-8-yl)methyl)-1-methyl-1,2,3,4-tetrahydroisoquinoline-2-carbonyl)-4,4-dimethylpent-2-enenitrile]: the DC50 at BRD9 [3] (setting [9]) and at BRD9 [2] (setting [7]) was 10 to 25 nM in each case. Moreover, the Dmax at BRD9 [3] (setting [6]) and on BRD9 [2] (setting [8]) was more than 75% each time.
Turning to `COCC1(/C=C(\C#N)C(=O)N2CCc3c(CN4CCN(Cc5c(OC)cc(-c6cn(C)c(=O)c(C)c6C)cc5OC)CC45CC5)cccc3C2C)CC1` (mixture of isomers) [Compound B124, (E/Z)-2-(5-((7-(2,6-dimethoxy-4-(1,4,5-trimethyl-6-oxo-1,6-dihydropyridin-3-yl)benzyl)-4,7-diazaspiro[2.5]octan-4-yl)methyl)-1-methyl-1,2,3,4-tetrahydroisoquinoline-2-carbonyl)-3-(1-(methoxymethyl)cyclopropyl)acrylonitrile], the DC50 on BRD9 [3] (setting [9]) and on BRD9 [2] (setting [7]) was less than 1.25 nM throughout. Moreover, the Dmax at BRD9 [3] (setting [6]) and on BRD9 [2] (setting [8]) was more than 75% throughout.
For the compound `COc1cc(-c2cn(C)c(=O)c(C)c2C)cc(OC)c1CN1CC2CCC(C1)N2C(=O)/C(C#N)=C/c1nccs1` (mixture of isomers) [BRD9q, (E/Z)-2-(3-(2,6-dimethoxy-4-(1,4,5-trimethyl-6-oxo-1,6-dihydropyridin-3-yl)benzyl)-3,8-diazabicyclo[3.2.1]octane-8-carbonyl)-3-(thiazol-2-yl)acrylonitrile], the DC50 on BRD9 [3] (Table 4, BRD9 degradation, determined according to Assay Protocol 2, read-out: DC50^2) is less than 25 nM. Moreover, the Dmax at BRD9 [2] (Table 4, BRD9 degradation, determined according to Assay Protocol 1, read-out: Dmax^1) was in the range of 50 to 70%.
